Laboratory results reported in article PMC10368209, “Indolo[2,3-e]benzazocines and indolo[2,3-f]benzazonines and their copper(II) complexes as microtubule destabilizing agents” (Dalton Transactions (Cambridge, England : 2003), 2023).
Converted amounts (≈) assume the structure as drawn. “And” between values parts separate entries of the source, which are not always exact repeats. Equal entries are not always repeated. Where two headings read alike, the source gives them in different places.

Legend:
[1] = Thermodynamic solubility by UV-vis in saturated solutions; format: physicochemical; conditions: 20 mM HEPES buffer, 25 °C, aqueous buffer, thermodynamic from solid; pH 7.4 (20 mM HEPES), aqueous solution, T = 298 K, I = 0.10 M (KCl); read-out: Thermodynamic solubility S 7.4
Procedure: The thermodynamic solubility (S) of the studied compounds was determined in saturated solutions at pH 7.40 (20 mM HEPES buffer) in the absence of DMSO at 25.0 ± 0.1 °C. UV–vis spectrophotometry was applied to determine the concentration of the compounds using calibrating samples of the compounds of known concentrations dissolved in 100% DMSO and 50% (v/v) DMSO/buffered aqueous solutions.

[2] = Proton dissociation constants of ligands by UV-vis titrations; format: physicochemical; conditions: DMSO:water 30:70 (v/v) mixture, 30:70% (v/v) DMSO/H2O, T = 298 K, I = 0.10 M (KCl)
Procedure: The UV–vis spectra were recorded on an Agilent Cary 8454 diode array spectrophotometer between 200 and 800 nm. Spectrophotometric titrations were carried out on samples containing the ligand (HL^1, HL^2, HL^5 or HL^1(7)) or the ligand and Cu(II) ions together at different ligand-to-metal ratios (1 : 1, 1.5 : 1, 2 : 1) by a KOH solution in a DMSO : water 30 : 70 (v/v) mixture as solvent at 25.0 ± 0.1 °C in the pH range from 1.7 to 12.7 using 0.1 M KCl ionic strength. The concentration of ligands was 10 μM. The path length was 5 cm. For pH measurements and titrations, an Orion 710A pH-meter equipped with a Metrohm combined electrode (type 6.0234.100) and a Metrohm 665 Dosimat burette was used. Blank titrations (HCl vs. KOH) were performed similarly to the method proposed by Irving et al. for pure aqueous solutions to calibrate the electrode system to the pH = −log[H+] scale in the DMSO–water solvent mixture.[83] The water ionization constant (pKw) was determined to be 14.52 ± 0.05 on average, which is in line with the literature data.[84] During the titrations argon was passed over the solutions. The computer program PSEQUAD was used to calculate the proton dissociation constants (pKa) of the ligands, the overall stability constants (log β) of the Cu(II) complexes and the individual spectra of the various species present in solution.[85] […]

[3] = Stability constants and pKa of Cu(II) complexes by UV-vis titrations; format: physicochemical; conditions: 30:70% (v/v) DMSO/H2O
Procedure: The UV–vis spectra were recorded on an Agilent Cary 8454 diode array spectrophotometer between 200 and 800 nm. Spectrophotometric titrations were carried out on samples containing the ligand (HL^1, HL^2, HL^5 or HL^1(7)) or the ligand and Cu(II) ions together at different ligand-to-metal ratios (1 : 1, 1.5 : 1, 2 : 1) by a KOH solution in a DMSO : water 30 : 70 (v/v) mixture as solvent at 25.0 ± 0.1 °C in the pH range from 1.7 to 12.7 using 0.1 M KCl ionic strength. The concentration of ligands was 10 μM. The path length was 5 cm. For pH measurements and titrations, an Orion 710A pH-meter equipped with a Metrohm combined electrode (type 6.0234.100) and a Metrohm 665 Dosimat burette was used. Blank titrations (HCl vs. KOH) were performed similarly to the method proposed by Irving et al. for pure aqueous solutions to calibrate the electrode system to the pH = −log[H+] scale in the DMSO–water solvent mixture.[83] The water ionization constant (pKw) was determined to be 14.52 ± 0.05 on average, which is in line with the literature data.[84] During the titrations argon was passed over the solutions. The computer program PSEQUAD was used to calculate the proton dissociation constants (pKa) of the ligands, the overall stability constants (log β) of the Cu(II) complexes and the individual spectra of the various species present in solution.[85] In the general equilibrium pM + qL + rH ⇌ MpLqHr the stability constants is defined as β(MpLqHr) = [MpLqHr]/[M]^p[L]^q[H]^r, where M denotes the Cu(II) ion and L the completely deprotonated ligand. The calculations were always performed from experimental data where no precipitation was observed during titration.

[4] = system: Colo205 human colon adenocarcinoma cell line; assay: In vitro cytotoxicity MTT assay; format: cell-based
Excerpt: (§1) Four cell lines were used in this study: the doxorubicin-sensitive Colo205 (CCL-222, ATCC, Manassas, VA, USA) human colon adenocarcinoma cell line; the doxorubicin-resistant Colo320/MDR-LRP expressing P-glycoprotein (P-gp, ABCB1) (MDR1)-LRP (CCL-220.1, ATCC) human colon adenocarcinoma cell line; the hormone-responsive MCF-7 breast cancer cell line and the normal MRC-5 human embryonal lung fibroblast cell line (CCL-171, ATCC). The human cancer cell lines were purchased from LGC Promochem (Teddington, UK), and the MRC-5 cell line is a Sigma-Aldrich (Merck KGaA, Darmstadt, Germany) product. The Colo205 and Colo320 cell lines were cultured in RPMI 1640 medium supplemented with 10% fetal bovine serum (FBS), 2 mM L-glutamine, 1 mM Na-pyruvate and 10 mM HEPES. The MCF-7 and MRC-5 cells were cultured in Eagle's Minimal Essential Medium (EMEM) containing 4.5 g L^−1 of glucose and supplemented with a non-essential amino acid mixture, a selection of vitamins and 10% FBS. All cell lines were incubated at 37 °C, 5% CO2, 95% air atmosphere. The cells were detached with Trypsin-Versene (EDTA) solution for 5 min at 37 °C.
(§2) Prior to the cytotoxicity assays 10 mM stock solutions of the tested compounds were prepared in DMSO. These stock solutions were diluted with the culture medium (EMEM or RPMI 1640), and twofold serial dilutions of the compounds were prepared in 100 μL of the appropriate medium. […] The positive control was doxorubicin (Merck), and CuCl2 was also tested. All cancer cells were treated with Trypsin-Versene (EDTA) solution. A cell density of 1 × 10^4 cells was adjusted for the colon adenocarcinoma cells in 100 μL of RPMI 1640 medium and were added to each well, except for the medium control wells. The final volume was 200 μL in the wells containing compounds and cells. The MCF-7 and MRC-5 cells were seeded overnight prior to the assay. The following day, the serial dilution of the compounds were made in separate plates and added to the cells. The culture plates were incubated at 37 °C for 72 h; and at the end of the incubation period, 20 μL of 5 mg mL^−1 3-(4,5-dimethylthiazol-2-yl)-2,5-diphenyltetrazolium bromide (MTT) solution was added to each well and incubated for 4 h at 37 °C. The plates were further incubated at 37 °C overnight following the addition of 100 μL of sodium dodecyl sulfate (SDS) solution (10% in 0.01 M HCl). The optical density (OD) was measured at 450 nm (ref. 620 nm) with a Multiscan EX ELISA reader to follow the cell growth. Inhibition of cell growth (expressed as IC50: inhibitory concentration that reduces by 50% the growth of the cells exposed to the tested compounds) was determined from the sigmoid curve, where 100 − ((ODsample − ODmedium control)/(ODcell control − ODmedium control)) × 100 values were plotted against the logarithm of compound concentrations. The sigmoidal dose–response model (comparing variable and fixed slopes) of the GraphPad Prism software[88] was used to fit the curves. The IC50 values are averages from at least 3 independent experiments.

[5] = system: doxorubicin-resistant Colo320 human colon adenocarcinoma cell line; assay: In vitro cytotoxicity MTT assay; format: cell-based
Excerpt: as §1, §2

[6] = system: normal human embryonal lung fibroblast cells (MRC-5); assay: In vitro cytotoxicity MTT assay; format: cell-based; conditions: Homo sapiens, MRC5, 72 h incubation
Excerpt: as §1, §2

[7] = system: MCF-7 breast cancer cells; assay: In vitro cytotoxicity MTT assay; format: cell-based, human
Procedure: The human cancer cell lines were purchased from LGC Promochem (Teddington, UK), and the MRC-5 cell line is a Sigma-Aldrich (Merck KGaA, Darmstadt, Germany) product. […] The MCF-7 and MRC-5 cells were cultured in Eagle's Minimal Essential Medium (EMEM) containing 4.5 g L^−1 of glucose and supplemented with a non-essential amino acid mixture, a selection of vitamins and 10% FBS. […] The cells were detached with Trypsin-Versene (EDTA) solution for 5 min at 37 °C.
Prior to the cytotoxicity assays 10 mM stock solutions of the tested compounds were prepared in DMSO. […] The positive control was doxorubicin (Merck), and CuCl2 was also tested. All cancer cells were treated with Trypsin-Versene (EDTA) solution. […] The final volume was 200 μL in the wells containing compounds and cells. The MCF-7 and MRC-5 cells were seeded overnight prior to the assay. The following day, the serial dilution of the compounds were made in separate plates and added to the cells. The culture plates were incubated at 37 °C for 72 h; and at the end of the incubation period, 20 μL of 5 mg mL^−1 3-(4,5-dimethylthiazol-2-yl)-2,5-diphenyltetrazolium bromide (MTT) solution was added to each well and incubated for 4 h at 37 °C. The plates were further incubated at 37 °C overnight following the addition of 100 μL of sodium dodecyl sulfate (SDS) solution (10% in 0.01 M HCl). The optical density (OD) was measured at 450 nm (ref. 620 nm) with a Multiscan EX ELISA reader to follow the cell growth. […] The sigmoidal dose–response model (comparing variable and fixed slopes) of the GraphPad Prism software[88] was used to fit the curves. The IC50 values are averages from at least 3 independent experiments.

[8] = system: ct-DNA; assay: Ethidium displacement from ct-DNA by spectrofluorimetry; format: binding, calf; conditions: cDNA = 0.5 μM, cethidium = 0.25 μM, 298 K, 10 mM HEPES, pH 7.40
Procedure: Fluorescence measurements were carried out on a Fluoromax (Horiba Jobin Yvon) fluorimeter. Stock solutions of the complexes and ligands were prepared in pure DMSO (c = 1 or 0.5 mM). Stock solution of ct-DNA was prepared as described recently.[86] The sample volume was […] and contained 0.5 μM ct-DNA expressed in base pairs, 0.25 μM ethidium and different concentrations of complexes 1, 2, 4, 5, 6, 4(6), 4(7) or ligands (HL^1, HL^2, HL^5, HL^6) in 10 mM HEPES buffer (pH 7.40). DMSO content of the samples varied between 0 and 1% (v/v). The excitation wavelength was 510 nm, and the fluorescence emission was measured in the range of 530–750 nm. Corrections for self-absorbance and inner filter effect were performed as described previously.[87]

[9] = system: tubulin (colchicine site); assay: Inhibition of [3H]colchicine binding to tubulin; conditions: 0.5 μM tubulin, 5 μM [3H]colchicine
Procedure: (§3) The methods used to determine the IC50 values for tubulin assembly and inhibition of [^3H]colchicine binding were recently described in detail.[96] In brief, for the assembly assay, 0.25 mL reaction mixtures contained 1.0 mg mL^−1 (10 μM) tubulin, 0.8 M monosodium glutamate (pH 6.6 with HCl in 2.0 M stock solution), 4% (v/v) DMSO (compound solvent), varying compound concentrations, and 100 μM GTP. All components except GTP were preincubated at 30 °C for 15 min in a 0.24 mL volume. Reaction mixtures were then placed on ice, and the GTP was added in a 10 μL volume. Assembly was monitored in Beckman DU7400/7500 spectrophotometers equipped with electronic temperature controllers and driven by a custom program. The samples were transferred to cuvettes held at 0 °C, and the temperature was jumped to 30 °C over about 30 s. Change in turbidity was measured for 20 min at 350 nm, and the IC50 was defined as the compound concentration that reduced the extent of reaction by 50%. For the colchicine binding assay, reaction mixtures contained 0.05 mg mL^−1 (0.5 μM) tubulin, 5.0 μM [^3H]colchicine, 5% (v/v) DMSO (compound solvent), compound as indicated, and components found to stabilize the colchicine binding activity of tubulin. Incubation was for 10 min at 37 °C, at which time the amount of colchicine bound to the tubulin is 40–60% of maximum. Each reaction mixture was diluted with 2.0 mL of ice cold water and poured onto a single Whatman DEAE-cellulose filter (tubulin binds tightly to the filter, and unbound colchicine passes through). Gravity filtration was used for the samples, and the filters were then washed with three 2.0 mL aliquots of ice cold water (vacuum aspiration). The filters were counted in a Beckman scintillation counter, with correction for the amount of radiolabel bound to filters in the absence of tubulin.

[10] = system: purified tubulin; assay: Inhibition of tubulin assembly (turbidity); format: biochemical; conditions: 10 μM tubulin, 30 °C, turbidity at 350 nm; read-out: Inhibition of tubulin assembly IC50 ± SD
Procedure: as §3, with “Incubation was for 10 min at 37 °C, at which time the amount of colchicine bound to the tubulin is 40–60% of maximum. Each reaction mixture was diluted with 2.0 mL of ice cold water and poured onto a single Whatman DEAE-cellulose filter (tubulin binds tightly to the filter, and unbound colchicine passes through). Gravity filtration was used for the samples, and the filters were then washed with three 2.0 mL aliquots of ice cold water (vacuum aspiration).” left out

[11] = Cu(II) complex of the ligand, T = 298 K, I = 0.10 M (KCl)
[12] = selectivity factor normal vs cancer cells

Row | SMILES | solubility thermodynamic [1] [µM] | pKa ([2]; read-out: pKa1 H2(HL)^2+) | pKa ([2]; read-out: pKa2 H(HL)^+) | log β [Cu(HL)]^2+ [3, 11] | log β [Cu(L)]^+ [3, 11] | log K′ [Cu(L)]^+ ([3]; K′: H2(HL)^2+ + Cu^2+ ⇌ [Cu(L)]^+ + 3H^+, 298 K) | IC50 ([4]; Homo sapiens, COLO 205, 72 h incubation, MTT) [µM] | SF (Colo205) = IC50 MRC-5/IC50 Colo205 [4, 12] | IC50 ([5]; Homo sapiens, COLO 320, 72 h incubation, MTT) [µM] | SF (Colo320) = IC50 MRC-5/IC50 Colo320 [5, 12] | IC50 [6] [µM] | IC50 ([7]; Homo sapiens, MCF7, 72 h incubation, MTT) [µM] | SF (MCF-7) = IC50 MRC-5/IC50 MCF-7 [7, 12] | Displacement of intercalated ethidium from ct-DNA (in words) [8] | Inhibition of colchicine binding % inhibition ± SD ([9]; 5 μM inhibitor) [%] | Inhibition of colchicine binding % inhibition ± SD ([9]; 25 μM inhibitor) [%] | IC50 [10] | Inhibition of colchicine binding % inhibition ± SD ([9]; 0.5 μM inhibitor) [%]
1 | C(=N\N=C1/NCCc2ccccc2-c2c1[nH]c1ccccc21)/c1ccccn1 [HL^1] | 8 (≈ 2.92 µg/mL) | 2.07 ± 0.01 | 5.04 ± 0.02 | 8.55 ± 0.02 | 4.14 ± 0.02 | −2.97 | 30 ± 2 | 1.37 | 5.6 ± 0.1 | 7.26 | 40 ± 1 | 1.3 ± 0.1 | 31.03 | could not displace the intercalated ethidium cation | 18 ± 5 | 46 ± 5 | – | –
2 | COc1ccc(/C=C\c2cc(OC)c(OC)c(OC)c2)cc1O [CA-4, combretastatin A-4, reference compound] | – | – | – | – | – | – | – | – | – | – | – | – | – | – | […] | – | […] | 81 ± 4
